Experimental data from patent US20100184094A1, “USE OF MDCK CELLS IN THE EVALUATION OF CHOLESTEROL MODULATORS” (priority 2007, published 2010).

Molecular target: T1, rat NPC1L1 (Rattus norvegicus, UniProt Q6T3U3)
T1 construct: expressed in transfected cells
Assay: [3H]AS binding to rNPC1L1/HEK293 cells (saturation, kinetics, competition, acid wash)
Conditions: for IC50: 5.36 nM [3H]AS, 4 h, 37° C., read-out: IC50 inhibition of [3H]AS binding; for Ki: rNPC1L1/HEK293 cells
Protocol: rNPC1L1/HEK293 and TsA201 cells were seeded at a density of 10,000 cells per well in 96-well poly-D-lysine coated plates and cells were allowed to attach for approximately 18 h at 37° C. TsA201 cells were subsequently transfected with dog NPC1L1/pcDNA5/FRT according to the manufacturer's instructions (Roche) and incubated for 3 days at 37° C. MDCKII-derived, LLC-PKI, HepG2, or CaCo-2 cells were seeded at a density of 25,000 cells per well in 96-well tissue culture treated plates, and cells were allowed to attach and differentiate for approximately 72 h at 37° C., except for CaCo-2 cells where differentiation took approximately 14 days at 37° C. […] Duplicate samples were averaged for each experimental point. […] To determine the kinetics of ligand association, cells were incubated with [^3H]AS for different periods of time. Dissociation kinetics were determined by addition of 100 μM EZE-gluc, and incubating for different periods of time. Nonspecific binding was defined in the presence of 100 μM EZE-gluc. At the end of the incubation period, cells were washed twice with 200 μl of pre-warmed DMEM to separate bound from free ligand, 1% SDS was added to the wells followed by 5 ml of Scintillant, and radioactivity associated with cells was determined using a β-counter. […] Thereafter, plates were placed on ice and cells were washed twice with ice-cold PBS, followed by ice-cold acid wash with DMEM, pH 3.5, for 1, 5 or 15 minutes. […] For Transwell experiments, MDCKII cells were seeded at 200,000 cells/well in a 24-well plate and incubated for 3 days at 37° C. […] Thereafter, both apical and basolateral compartments were washed three times with PBS, and the Transwell filter was cut out and its associated radioactivity determined using afi-counter. Data from saturation, competition and ligand dissociation experiments were analyzed as described in the literature; see, Priest, et al., 2004 Biochemistry 43:9866-9876; Knaus et al., 1995 Biochemistry 34:13627-13634. The association rate, k1, was determined by employing the pseudo-first-order rate equation k1=kobs([LR]e/[L][LR]max)) where [LR]max is the concentration of the complex at equilibrium, [L] is the concentration of ligand, [LR]max is the total receptor concentration, kobs is the slope of the pseudo-first order plot, ln([LR]e/([LR]e−[LR]t)) versus time, and [LR]t is the receptor-ligand complex at one given time point t.
Incubation of rNPC1L1/HEK293 cells with 5 nM [311]AS results in a time-dependent association of ligand with cells that reaches equilibrium in ˜3 h (FIG. 1B). The nonspecific binding component is time-independent and has been subtracted from the experimental data. A semilogarithmic transformation of the data yielded a linear dependence (FIG. 1B, inset), as expected for a pseudo-first order reaction, and the slope of this line gives kobs of 0.0208 min^−1. The association rate constant, k1, calculated as described under Example 3, is 2.4×10^6 M^−1 min^−1.
Ki values, determined as described above, are presented in Table 1 below and display the expected rank order of potency for interaction of these ligands with rat NPC1L1; Garcia-Calvo et al., 2005 Proc. Natl. Acad. Sci. USA 102:8132-8137.
Such an approach has previously been previously used to characterize cell surface, non-covalent interactions; Hopkins & Trowbridge, 1983 J. Cell Biol. 97:508-521; Chen et al., 1998 Proc. Natl. Acad. USA 95:6373-6378.

SMILES: O=C1[C@H](CC[C@H](O)c2ccc(F)cc2)[C@@H](c2ccc(O)cc2)N1c1ccc(F)cc1 [EZE, Ezetimibe]
- IC50: 398 nM
- Ki: 209 ± 40.4 nM

SMILES: COC(=O)[C@H]1O[C@@H](Oc2ccc([C@@H]3[C@@H](CC[C@H](O)c4ccc(F)cc4)C(=O)N3c3ccc(C#CCNS(C)(=O)=O)cc3)cc2)[C@H](O)[C@@H](O)[C@@H]1O [PS, 4-[(2S,3R)-3-[(3S)-3-(4-fluorophenyl)-3-hydroxypropyl]-1-(4-{3-[(methylsulfonyl)amino]prop-1-yn-1-yl}phenyl)-4-oxoazetidin-2-yl]phenyl methyl-β-D-glucopyranosiduronate]
- IC50: 6.61 nM
- Ki: 4.07 ± 1.47 nM

SMILES: O=C(O)[C@H]1O[C@@H](Oc2ccc([C@@H]3[C@@H](CC[C@H](O)c4ccc(F)cc4)C(=O)N3c3ccc(F)cc3)cc2)[C@H](O)[C@@H](O)[C@@H]1O [EZE-gluc, ezetimibe glucuronide]
- IC50: 182 nM
- Ki: 95.1 ± 8.62 nM
